Measurements published in patent US20090298820A1, “3-SUBSTITUTED-1H-PYRROLO[2,3-B]PYRIDINE AND 3-SUBSTITUTED-1H-PYRROLO[3,2-B]PYRIDINE COMPOUNDS, THEIR USE AS MTOR KINASE AND PI3 KINASE INHIBITORS, AND THEIR SYNTHESES” (Wyeth, priority 2008, published 2009).

Experiments:
Assay type in all cases: biochemical
[1] = molecular target: PI3Kα (Homo sapiens, UniProt P42336); experiment: PI3K-alpha fluorescence polarization assay; conditions: read-out: PI3Kα Median IC50
[2] = molecular target: PI3Kγ (Homo sapiens, UniProt P48736); experiment: PI3K-gamma fluorescence polarization assay; conditions: read-out: PI3Kγ Median IC50
[3] = molecular target: mTOR (Homo sapiens, UniProt P42345); experiment: mTOR enzyme assay (DELFIA format, His6-S6K substrate); conditions: read-out: mTOR Kinase Median IC50

PI3Kα, sequence (P42336 whole entry, species assumed): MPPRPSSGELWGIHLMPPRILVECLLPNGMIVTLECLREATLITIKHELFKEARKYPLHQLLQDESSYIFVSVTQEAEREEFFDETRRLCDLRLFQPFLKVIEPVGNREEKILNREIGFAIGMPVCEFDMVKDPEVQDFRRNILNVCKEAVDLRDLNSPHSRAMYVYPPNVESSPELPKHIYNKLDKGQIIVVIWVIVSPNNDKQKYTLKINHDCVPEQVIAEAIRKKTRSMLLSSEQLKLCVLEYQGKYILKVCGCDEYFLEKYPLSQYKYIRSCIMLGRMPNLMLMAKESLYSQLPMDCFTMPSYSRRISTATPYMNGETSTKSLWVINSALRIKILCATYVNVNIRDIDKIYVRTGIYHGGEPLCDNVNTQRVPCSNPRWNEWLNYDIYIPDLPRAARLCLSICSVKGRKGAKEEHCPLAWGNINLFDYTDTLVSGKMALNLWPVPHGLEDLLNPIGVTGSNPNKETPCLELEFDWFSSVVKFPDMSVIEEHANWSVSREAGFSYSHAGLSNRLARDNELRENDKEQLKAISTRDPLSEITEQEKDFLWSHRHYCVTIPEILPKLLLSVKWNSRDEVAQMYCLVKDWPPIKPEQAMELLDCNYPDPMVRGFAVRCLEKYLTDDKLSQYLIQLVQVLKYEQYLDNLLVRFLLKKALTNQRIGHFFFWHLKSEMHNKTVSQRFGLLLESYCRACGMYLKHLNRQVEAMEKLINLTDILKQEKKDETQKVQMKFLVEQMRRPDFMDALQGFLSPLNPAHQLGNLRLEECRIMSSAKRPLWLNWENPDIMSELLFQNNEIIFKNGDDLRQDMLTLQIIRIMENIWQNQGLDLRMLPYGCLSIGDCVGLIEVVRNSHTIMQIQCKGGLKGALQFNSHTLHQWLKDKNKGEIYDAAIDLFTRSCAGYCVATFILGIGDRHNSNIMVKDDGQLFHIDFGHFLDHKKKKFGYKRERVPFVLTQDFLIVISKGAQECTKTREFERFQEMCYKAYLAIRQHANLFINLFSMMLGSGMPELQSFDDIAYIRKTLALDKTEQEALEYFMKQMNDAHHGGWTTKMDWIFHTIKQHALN
PI3Kα, sequence (P27986 whole entry partner, species assumed): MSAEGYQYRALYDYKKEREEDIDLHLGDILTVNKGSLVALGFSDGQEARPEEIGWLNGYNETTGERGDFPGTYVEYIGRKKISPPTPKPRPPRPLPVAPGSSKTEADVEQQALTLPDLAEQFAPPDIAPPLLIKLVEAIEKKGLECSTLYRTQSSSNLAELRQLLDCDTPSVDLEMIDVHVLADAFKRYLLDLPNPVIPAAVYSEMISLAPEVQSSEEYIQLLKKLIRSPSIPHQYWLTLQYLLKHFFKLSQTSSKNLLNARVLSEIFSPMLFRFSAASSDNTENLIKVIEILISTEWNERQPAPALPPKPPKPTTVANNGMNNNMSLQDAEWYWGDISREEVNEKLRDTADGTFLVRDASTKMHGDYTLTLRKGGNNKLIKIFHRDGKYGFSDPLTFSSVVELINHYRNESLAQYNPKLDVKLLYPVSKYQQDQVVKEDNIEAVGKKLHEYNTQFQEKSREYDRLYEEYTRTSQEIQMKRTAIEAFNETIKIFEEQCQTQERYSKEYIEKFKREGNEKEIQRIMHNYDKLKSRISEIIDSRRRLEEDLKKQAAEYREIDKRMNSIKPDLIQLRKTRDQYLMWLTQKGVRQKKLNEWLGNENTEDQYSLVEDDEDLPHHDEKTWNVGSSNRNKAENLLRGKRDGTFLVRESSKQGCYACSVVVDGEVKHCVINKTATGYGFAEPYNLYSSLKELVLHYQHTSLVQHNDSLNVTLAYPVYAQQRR
PI3Kγ, sequence (P48736 whole entry, species assumed): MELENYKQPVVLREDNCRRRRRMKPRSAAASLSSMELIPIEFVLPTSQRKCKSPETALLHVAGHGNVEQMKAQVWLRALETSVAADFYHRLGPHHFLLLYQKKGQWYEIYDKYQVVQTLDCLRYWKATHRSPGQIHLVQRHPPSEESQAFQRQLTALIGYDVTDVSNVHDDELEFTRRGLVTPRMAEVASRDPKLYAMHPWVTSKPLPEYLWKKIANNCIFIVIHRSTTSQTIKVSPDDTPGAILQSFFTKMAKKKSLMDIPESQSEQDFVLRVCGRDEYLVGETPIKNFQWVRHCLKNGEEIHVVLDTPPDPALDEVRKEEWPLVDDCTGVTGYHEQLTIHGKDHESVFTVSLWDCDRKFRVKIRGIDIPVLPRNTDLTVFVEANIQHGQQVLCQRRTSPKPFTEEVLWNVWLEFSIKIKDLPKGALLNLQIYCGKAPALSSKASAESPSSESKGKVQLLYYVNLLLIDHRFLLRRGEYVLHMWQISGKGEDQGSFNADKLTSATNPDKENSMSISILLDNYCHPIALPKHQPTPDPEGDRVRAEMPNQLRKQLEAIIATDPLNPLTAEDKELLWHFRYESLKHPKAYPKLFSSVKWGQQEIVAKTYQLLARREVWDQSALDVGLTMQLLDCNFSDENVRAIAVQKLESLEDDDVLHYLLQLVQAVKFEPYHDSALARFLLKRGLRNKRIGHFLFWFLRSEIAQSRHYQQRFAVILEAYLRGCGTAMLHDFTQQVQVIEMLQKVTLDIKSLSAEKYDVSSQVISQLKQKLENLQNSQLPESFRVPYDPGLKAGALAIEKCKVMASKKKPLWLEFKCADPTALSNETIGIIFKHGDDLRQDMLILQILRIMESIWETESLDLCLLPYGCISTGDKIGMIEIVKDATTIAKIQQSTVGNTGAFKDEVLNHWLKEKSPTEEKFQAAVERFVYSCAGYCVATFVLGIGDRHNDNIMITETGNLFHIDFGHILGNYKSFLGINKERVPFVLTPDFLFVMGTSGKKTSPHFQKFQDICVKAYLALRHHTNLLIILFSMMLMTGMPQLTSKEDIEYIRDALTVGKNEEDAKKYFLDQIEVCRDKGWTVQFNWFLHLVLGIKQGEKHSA

Compound	IC50 [1]	IC50 [2]	IC50 [3]
Cn1cc(/C=C2\Oc3cccc(O)c3C2=O)c2c(-c3cccc(O)c3)ccnc21 [Compound 125, (2Z)-4-hydroxy-2-{[4-(3-hydroxyphenyl)-1-methyl-1H-pyrrolo[2,3-b]pyridin-3-yl]methylene}-1-benzofuran-3(2H)-one]	43 nM	93 nM	13 nM
CN1CCOc2cc(-c3ccnc4c3c(/C=C3\Oc5cccc(O)c5C3=O)cn4C)ccc21 [Compound 126, (2Z)-4-hydroxy-2-{[1-methyl-4-(4-methyl-3,4-dihydro-2H-1,4-benzoxazin-7-yl)-1H-pyrrolo[2,3-b]pyridin-3-yl]methylene}-1-benzofuran-3(2H)-one]	802 nM	8640 nM	6.2 nM
Cn1cc(/C=C2\Oc3cccc(O)c3C2=O)c2c(-c3ccc(-c4ccco4)cc3)ccnc21 [Compound 127, (2Z)-2-({4-[4-(2-furyl)phenyl]-1-methyl-1H-pyrrolo[2,3-b]pyridin-3-yl}methylene)-4-hydroxy-1-benzofuran-3(2H)-one]	107 nM	829 nM	8.1 nM
Cn1cc(/C=C2\Oc3cccc(O)c3C2=O)c2c(-c3ccc(CN4CCOCC4)cc3)ccnc21 [Compound 130, (2Z)-4-hydroxy-2-({1-methyl-4-[4-(morpholin-4-ylmethyl)phenyl]-1H-pyrrolo[2,3-b]pyridin-3-yl}methylene)-1-benzofuran-3(2H)-one]	154 nM	263 nM	3.2 nM
Cn1cc(/C=C2\Oc3cccc(O)c3C2=O)c2c(-c3ccc(N4CCNCC4)cc3)ccnc21 [Compound 135, (2Z)-4-hydroxy-2-{[1-methyl-4-(4-piperazin-1-ylphenyl)-1H-pyrrolo[2,3-b]pyridin-3-yl]methylene}-1-benzofuran-3(2H)-one]	156 nM	1420 nM	10 nM
Cn1cc(/C=C2\Oc3cccc(O)c3C2=O)c2c(-c3ccc(C(=O)N4CCNCC4)cc3)ccnc21 [Compound 136, (2Z)-4-hydroxy-2-({1-methyl-4-[4-(piperazin-1-ylcarbonyl)phenyl]-1H-pyrrolo[2,3-b]pyridin-3-yl}methylene)-1-benzofuran-3(2H)-one]	27 nM	106 nM	2 nM
Cn1cc(/C=C2\Oc3cccc(O)c3C2=O)c2c(-c3ccc(F)c(C(=O)Nc4ccccc4)c3)ccnc21 [Compound 137, 2-fluoro-5-{3-[(Z)-(4-hydroxy-3-oxo-1-benzofuran-2(3H)-ylidene)methyl]-1-methyl-1H-pyrrolo[2,3-b]pyridin-4-yl}-N-phenylbenzamide]	122 nM	256 nM	4.9 nM
Cn1cc(/C=C2\Oc3cccc(O)c3C2=O)c2c(-c3cccc(C(=O)Nc4ccccc4)c3)ccnc21 [Compound 138, 3-{3-[(Z)-(4-hydroxy-3-oxo-1-benzofuran-2(3H)-ylidene)methyl]-1-methyl-1H-pyrrolo[2,3-b]pyridin-4-yl}-N-phenylbenzamide]	141 nM	1230 nM	7.8 nM
Cn1cc(/C=C2\Oc3cccc(O)c3C2=O)c2c(-c3ccc(N4CCCCC4)cc3)ccnc21 [Compound 142, (2Z)-4-hydroxy-2-{[1-methyl-4-(4-piperidin-1-ylphenyl)-1H-pyrrolo[2,3-b]pyridin-3-yl]methylidene}-1-benzofuran-3(2H)-one]	1580 nM	> 10000 nM	8 nM
Cn1cc(/C=C2\Oc3cccc(O)c3C2=O)c2c(-c3ccc(N4CCCC4)cc3)ccnc21 [Compound 143, (2Z)-4-hydroxy-2-{[1-methyl-4-(4-pyrrolidin-1-ylphenyl)-1H-pyrrolo[2,3-b]pyridin-3-yl]methylidene}-1-benzofuran-3(2H)-one]	1320 nM	> 10000 nM	80.5 nM
Cn1cc(/C=C2\Oc3cccc(O)c3C2=O)c2c(-c3ccc(C(=O)N4CCN(CCO)CC4)cc3)ccnc21 [Compound 146, (2Z)-4-hydroxy-2-{[4-(4-{[4-(2-hydroxyethyl)piperazin-1-yl]carbonyl}phenyl)-1-methyl-1H-pyrrolo[2,3-b]pyridin-3-yl]methylidene}-1-benzofuran-3(2H)-one]	100 nM	101 nM	0.4 nM
Cn1cc(/C=C2\Oc3cccc(O)c3C2=O)c2c(-c3ccc(C(=O)NCCCO)cc3)ccnc21 [Compound 147, 4-{3-[(Z)-(4-hydroxy-3-oxo-1-benzofuran-2(3H)-ylidene)methyl]-1-methyl-1H-pyrrolo[2,3-b]pyridin-4-yl}-N-(3-hydroxypropyl)benzamide]	38 nM	54 nM	0.6 nM
COCCNC(=O)c1ccc(-c2ccnc3c2c(/C=C2\Oc4cccc(O)c4C2=O)cn3C)cc1 [Compound 149, 4-{3-[(Z)-(4-hydroxy-3-oxo-1-benzofuran-2(3H)-ylidene)methyl]-1-methyl-1H-pyrrolo[2,3-b]pyridin-4-yl}-N-(2-methoxyethyl)benzamide]	48 nM	62 nM	1.7 nM
CN(C)CCNC(=O)c1ccc(-c2ccnc3c2c(/C=C2\Oc4cccc(O)c4C2=O)cn3C)cc1 [Compound 158, N-[2-(dimethylamino)ethyl]-4-{3-[(Z)-(4-hydroxy-3-oxo-1-benzofuran-2(3H)-ylidene)methyl]-1-methyl-1H-pyrrolo[2,3-b]pyridin-4-yl}benzamide]	179 nM	149 nM	8.6 nM
CN(C)CCOc1cccc2c1C(=O)/C(=C/c1cn(C)c3nccc(-c4ccccc4)c13)O2 [Compound 159, (2Z)-4-[2-(dimethylamino)ethoxy]-2-[(1-methyl-4-phenyl-1H-pyrrolo[2,3-b]pyridin-3-yl)methylidene]-1-benzofuran-3(2H)-one]	1450 nM	4150 nM	70.5 nM
Cn1cc(/C=C2\Oc3cccc(O)c3C2=O)c2c(N3CC4COC(C3)O4)ccnc21 (stereo not drawn) [Compound 165, (2Z)-2-{[4-(6,8-dioxa-3-azabicyclo[3.2.1]oct-3-yl)-1-methyl-1H-pyrrolo[2,3-b]pyridin-3-yl]methylidene}-4-hydroxy-1-benzofuran-3(2H)-one]	25 nM	144 nM	2.7 nM
CNC(=O)Nc1ccc2c(c1)C(=O)/C(=C/c1cn(C)c3nccc(-c4ccc(C(=O)N5CCN(CCO)CC5)cc4)c13)O2 [Compound 166, 1-[(2Z)-2-{[4-(4-{[4-(2-hydroxyethyl)piperazin-1-yl]carbonyl}phenyl)-1-methyl-1H-pyrrolo[2,3-b]pyridin-3-yl]methylidene}-3-oxo-2,3-dihydro-1-benzofuran-5-yl]-3-methylurea]	252 nM	343 nM	15.5 nM
CCOC(=O)Nc1ccc2c(c1)C(=O)/C(=C/c1cn(C)c3nccc(N4CCC(C(=O)N(C)C)CC4)c13)O2 [Compound 171, ethyl[(2Z)-2-({4-[4-(dimethylcarbamoyl)piperidin-1-yl]-1-methyl-1H-pyrrolo[2,3-b]pyridin-3-yl}methylidene)-3-oxo-2,3-dihydro-1-benzofuran-5-yl]carbamate]	2000 nM	8740 nM	66.5 nM
Cn1cc(/C=C2\Oc3ccc(NC(=O)Nc4ccccc4)cc3C2=O)c2c(N3CC4CCC(C3)O4)ccnc21 [Compound 172, 1-[(2Z)-2-{[1-methyl-4-(8-oxa-3-azabicyclo[3.2.1]oct-3-yl)-1H-pyrrolo[2,3-b]pyridin-3-yl]methylidene}-3-oxo-2,3-dihydro-1-benzofuran-5-yl]-3-phenylurea]	498 nM	1120 nM	145 nM
COCCN(C)C(=O)c1ccc(-c2ccnc3c2c(/C=C2\Oc4cccc(O)c4C2=O)cn3C)cc1 [Compound 175, 4-{3-[(Z)-(4-hydroxy-3-oxo-1-benzofuran-2(3H)-ylidene)methyl]-1-methyl-1H-pyrrolo[2,3-b]pyridin-4-yl}-N-(2-methoxyethyl)-N-methylbenzamide]	73 nM	152 nM	0.9 nM
CCn1cc(/C=C2\Oc3ccc(NC(=O)Nc4cccnc4)cc3C2=O)c2c(-c3ccc(C(=O)N4CCN(CCO)CC4)cc3)ccnc21 [Compound 177, 1-[(2Z)-2-{[1-ethyl-4-(4-{[4-(2-hydroxyethyl)piperazin-1-yl]carbonyl}phenyl)-1H-pyrrolo[2,3-b]pyridin-3-yl]methylidene}-3-oxo-2,3-dihydro-1-benzofuran-5-yl]-3-pyridin-3-ylurea]	2690 nM	2360 nM	66 nM
Cn1cc(/C=C2\Oc3ccc(NC(=O)Nc4cccnc4)cc3C2=O)c2c(-c3ccc(C(=O)N4CCOCC4)cc3)ccnc21 [Compound 178, 1-[(2Z)-2-({1-methyl-4-[4-(morpholin-4-ylcarbonyl)phenyl]-1H-pyrrolo[2,3-b]pyridin-3-yl}methylidene)-3-oxo-2,3-dihydro-1-benzofuran-5-yl]-3-pyridin-3-ylurea]	1120 nM	652 nM	54.5 nM
CNC(=O)Nc1ccc2c(c1)C(=O)/C(=C/c1cn(C)c3nccc(-c4ccc(C(=O)N5CCOCC5)cc4)c13)O2 [Compound 179, 1-methyl-3-[(2Z)-2-({1-methyl-4-[4-(morpholin-4-ylcarbonyl)phenyl]-1H-pyrrolo[2,3-b]pyridin-3-yl}methylidene)-3-oxo-2,3-dihydro-1-benzofuran-5-yl]urea]	249 nM	578 nM	15 nM
Cn1cc(/C=C2\Oc3cccc(O)c3C2=O)c2c(-c3ccc(S(=O)(=O)N4CCCCC4)cc3)ccnc21 [Compound 181, (2Z)-4-hydroxy-2-({1-methyl-4-[4-(piperidin-1-ylsulfonyl)phenyl]-1H-pyrrolo[2,3-b]pyridin-3-yl}methylidene)-1-benzofuran-3(2H)-one]	123 nM	1210 nM	58 nM
Cn1cc(/C=C2\Oc3ccc(NC(=O)Nc4cccnc4)cc3C2=O)c2c(-c3ccccc3)ccnc21 [Compound 183, 1-{(2Z)-2-[(1-methyl-4-phenyl-1H-pyrrolo[2,3-b]pyridin-3-yl)methylidene]-3-oxo-2,3-dihydro-1-benzofuran-5-yl}-3-pyridin-3-ylurea]	367 nM	479 nM	755 nM
